Source: US8871934B2, “Fluorene compound and pharmaceutical use thereof” (Japan Tobacco Inc., priority 2008, dated 2014)
Where two headings read alike, the source gives them in different places.

Target: human PDHK2 (hPDHK2) (Homo sapiens (Human), UniProt Q15119)
Experiment: Inhibitory action of PDHK activity in vitro (kinase reaction, residual PDH activity measured)
Type: biochemical
[1] = PDHK inhibitory activity, class symbol of IC50
[2] = read-out: PDHK inhibitory activity IC50
[3] = read-out: PDHK inhibitory activity (class symbol)
[4] = PDHK inhibitory activity (class symbol)
[5] = class symbol of IC50, read-out: PDHK inhibitory activity

Row | SMILES | IC50 [1] [nM] | IC50 [2] [nM] | IC50 [3] [nM] | IC50 [4] [nM] | IC50 [5] [nM]
1 | OC1(C(F)(F)F)c2ccccc2-c2ccc(-c3ccncc3)cc21 (stereo not shown) [compound 103] | 100 to 1000 | 151 |  |  | 
2 | NC(=O)C1CCN(C(=O)c2ccc3c(c2)C(O)(C(F)(F)F)c2ccccc2-3)C1 (stereo not shown) [compound 226] | > 1000 | 1140 |  |  | 
3 | OC1(C(F)(F)F)c2ccccc2-c2ccc(OC3CCCC3)cc21 (stereo not shown) [compound 259] | > 1000 | 1390 |  |  | 
4 | COCOCCN1C(=O)CCC1COc1ccc2c(c1)C(O)(C(F)(F)F)c1ccccc1-2 (stereo not shown) [compound 431] | 100 to 1000 | 250 |  |  | 
5 | O=C1CCCN1CCOc1cc(-c2cnn(CCO)c2)c2c(c1)C(O)(C(F)(F)F)c1ccccc1-2 (stereo not shown) [compound 484] | < 100 | 24 |  |  | 
6 | CN(C)CCCOc1ccc2c(c1)C(O)(C(F)(F)F)c1ccccc1-2 (stereo not shown) [compound 333] | 100 to 1000 | 924 |  |  | 
7 | O=C(O)CCn1cc(-c2cnc3c(c2)C(O)(C(F)(F)F)c2ccccc2-3)cn1 (stereo not shown) [compound 568] | < 100 | 83 |  |  | 
8 | COc1cc(CO)c2c(c1)C(O)(C(F)(F)F)c1ccccc1-2 (stereo not shown) [compound 627] |  | > 1000 | > 1000 |  | 
9 | Cn1cc(-c2cc(C(=O)N3CCC(O)C3)cc3c2-c2ccccc2C3(O)C(F)(F)F)cn1 (stereo not shown) [compound 376] | < 100 | 85 |  |  | 
10 | OCCn1cc(-c2ccc3c(c2)C(O)(C(F)(F)F)c2cccc(CO)c2-3)cn1 (stereo not shown) [compound 590] | > 1000 | 5920 |  |  | 
11 | OC1(C(F)(F)F)c2ccccc2-c2ccc(-c3ccccc3Cl)cc21 (stereo not shown) [compound 150] | > 1000 | 6840 |  |  | 
12 | CNC(=O)COc1cc(Br)c2c(c1)C(O)(C(F)(F)F)c1ccccc1-2 (stereo not shown) [compound 438] | 100 to 1000 | 112 |  |  | 
13 | CCn1cc(-c2cc(CO)c3c(c2)C(O)(C(F)(F)F)c2ccccc2-3)cn1 (stereo not shown) [compound 618] |  | 56 |  | < 100 | 
14 | CNC1CCN(C(=O)c2ccc3c(c2)C(O)(C(F)(F)F)c2ccccc2-3)C1 (stereo not shown) [compound 228] | > 1000 | 2190 |  |  | 
15 | O=C(O)Cc1ccc2c(c1)C(O)(C(F)(F)F)c1ccccc1-2 (stereo not shown) [compound 402] | > 1000 | > 10000 |  |  | 
16 | OC1(C(F)(F)F)c2ccccc2-c2ccc(-c3cccnc3)cc21 (stereo not shown) [compound 102] | 100 to 1000 | 323 |  |  | 
17 | O=C(c1cc(-c2cncnc2)c2c(c1)C(O)(C(F)(F)F)c1ccccc1-2)N1CCCC1 (stereo not shown) [compound 370] | 100 to 1000 | 114 |  |  | 
18 | Cc1cc(C(=O)N2CCC2)cc2c1-c1ccccc1C2(O)C(F)(F)F (single isomer, unassigned) [compound 135] |  | > 1000 |  |  | > 1000
19 | N#CCc1cc(Cl)cc2c1-c1ccccc1C2(O)C(F)(F)F (stereo not shown) [compound 625] |  | > 1000 | > 1000 |  | 
20 | O=C(c1ccc2c(c1)C(O)(C(F)(F)F)c1ccccc1-2)N1CCCC1CO (stereo not shown) [compound 195] | > 1000 | 5480 |  |  | 
21 | CC(C)n1cc(-c2cc(CO)c3c(c2)C(O)(C(F)(F)F)c2ccccc2-3)cn1 (stereo not shown) [compound 621] |  | 65 |  | < 100 | 
22 | Cn1cc(-c2cc(-c3cnn(C)c3)c3c(c2)C(O)(C(F)(F)F)c2ccccc2-3)cn1 (stereo not shown) [compound 579] | < 100 | 19 |  |  | 
23 | OC1(C(F)(F)F)c2ccccc2-c2cccc(F)c21 (stereo not shown) [compound 13] | > 1000 | 15900 |  |  | 

Row | SMILES | IC50 [1] [nM] | IC50 [2] [nM] | IC50 [3] [nM] | IC50 [4] [nM] | IC50 [5] [nM]
24 | Cn1cc(-c2cc(OCCCCC(=O)O)cc3c2-c2ccccc2C3(O)C(F)(F)F)cn1 (single isomer, unassigned) [compound 552] | < 100 | 17 |  |  | 
25 | CCC(=O)c1cccc2c1-c1ccccc1C2(O)C(F)(F)F (stereo not shown) [compound 81] | > 1000 | 2760 |  |  | 
26 | CN(C(=O)c1ccc2c(c1)C(O)(C(F)(F)F)c1ccccc1-2)c1ccccc1 (stereo not shown) [compound 56] | > 1000 | > 100000 |  |  | 
27 | OC12CC3CC(C1)CC(Cn1cc(-c4cccc5c4-c4ccccc4C5(O)C(F)(F)F)cn1)(C3)C2 (stereo not shown) [compound 547] | < 100 | 62 |  |  | 
28 | Cc1ccc2c(c1)-c1ccccc1C2(O)C(F)(F)F (stereo not shown) [compound 10] | > 1000 | 30800 |  |  | 
29 | Cc1cc(C(=O)N2CC(O)C2)cc2c1-c1ccccc1C2(O)C(F)(F)F (stereo not shown) [compound 350] | 100 to 1000 | 152 |  |  | 
30 | CC(C)(C)n1cc(-c2ccc3c(c2)C(O)(C(F)(F)F)c2cccc(CO)c2-3)cn1 (stereo not shown) [compound 602] |  | > 1000 | > 1000 |  | 
31 | OC1(C(F)(F)F)c2ccccc2-c2ccc(/C=C/c3ccccc3)cc21 (stereo not shown) [compound 252] | > 1000 | 1270 |  |  | 
32 | O=C(O)c1ccc2c(c1)C(O)(C(F)(F)F)c1ccccc1-2 (stereo not shown) [compound 24] | > 1000 | > 100000 |  |  | 
33 | OC1(C(F)(F)F)c2ccccc2-c2c(-c3nnco3)cccc21 (stereo not shown) [compound 140] | > 1000 | 2400 |  |  | 
34 | C#Cc1cc(C(N)=O)c2c(c1)C(O)(C(F)(F)F)c1ccccc1-2 (stereo not shown) [compound 632] |  | 195 |  | 100 to 1000 | 
35 | CCCOC(=O)c1cccc2c1-c1ccccc1C2(O)C(F)(F)F (stereo not shown) [compound 59] | 100 to 1000 | 772 |  |  | 
36 | CNC(=O)C1CCN(c2ccc3c(c2)C(O)(C(F)(F)F)c2ccccc2-3)CC1 (stereo not shown) [compound 231] | > 1000 | 3610 |  |  | 
37 | Cc1cnc2c(c1)C(O)(C(F)(F)F)c1ccccc1-2 (stereo not shown) [compound 196] | 100 to 1000 | 475 |  |  | 
38 | CC(C)Cc1cc(-c2cnn(C(CO)CO)c2)c2c(c1)C(O)(C(F)(F)F)c1ccccc1-2 (stereo not shown) [compound 648] |  | 44 |  | < 100 | 
39 | Cc1nn(C)c(C)c1-c1cccc2c1-c1ccccc1C2(O)C(F)(F)F (stereo not shown) [compound 567] |  | > 1000 |  |  | > 1000
40 | CN(C)C(=O)CCCOc1cc(-c2cnn(C)c2)c2c(c1)C(O)(C(F)(F)F)c1ccccc1-2 (stereo not shown) [compound 427] | < 100 | 20 |  |  | 
41 | N#Cc1ccc(-c2ccc3c(c2)C(O)(C(F)(F)F)c2ccccc2-3)cc1 (stereo not shown) [compound 224] | 100 to 1000 | 214 |  |  | 
42 | CCc1cc(CO)c2c(c1)C(O)(C(F)(F)F)c1ccccc1-2 (stereo not shown) [compound 642] |  | > 1000 | > 1000 |  | 
43 | O=C(O)c1ccc(-c2ccc3c(c2)C(O)(C(F)(F)F)c2ccccc2-3)cc1 (stereo not shown) [compound 188] | 100 to 1000 | 383 |  |  | 
44 | NC(=O)COc1cc(-c2cnn(CCO)c2)c2c(c1)C(O)(C(F)(F)F)c1ccccc1-2 (single isomer, unassigned) [compound 477] | < 100 | 18 |  |  | 
45 | OC1(C(F)(F)F)c2ccccc2-c2ccc(OCC3CC3)cc21 (stereo not shown) [compound 256] | > 1000 | 1000 |  |  | 
46 | OC1(C(F)(F)F)c2ccccc2-c2ccc(N3CCCCC3)cc21 (stereo not shown) [compound 148] | > 1000 | 8450 |  |  | 

Row | SMILES | IC50 [1] [nM] | IC50 [2] [nM] | IC50 [3] [nM] | IC50 [4] [nM] | IC50 [5] [nM]
47 | OC1(C(F)(F)F)c2ccccc2-c2ccc(-c3ccccn3)cc21 (stereo not shown) [compound 112] | > 1000 | 1230 |  |  | 
48 | O=C(COc1ccc2c(c1)C(O)(C(F)(F)F)c1ccccc1-2)N1CCC1 (stereo not shown) [compound 391] | 100 to 1000 | 485 |  |  | 
49 | CNC(=O)CCn1cc(-c2cccc3c2-c2ccccc2C3(O)C(F)(F)F)cn1 (stereo not shown) [compound 487] | < 100 | 64 |  |  | 
50 | CN(C)C(=O)CCCOc1cc(-c2cncnc2)c2c(c1)C(O)(C(F)(F)F)c1ccccc1-2 (stereo not shown) [compound 429] | < 100 | 19 |  |  | 
51 | CCc1cccc2c1-c1ccccc1C2(O)C(F)(F)F (stereo not shown) [compound 25] | > 1000 | 30900 |  |  | 
52 | N#Cc1cccc2c1-c1ccccc1C2(O)C(F)(F)F (stereo not shown) [compound 49] | > 1000 | 1790 |  |  | 
53 | Cc1nn(C)c(C)c1-c1ccc2c(c1)C(O)(C(F)(F)F)c1ccccc1-2 (stereo not shown) [compound 555] |  | > 1000 |  |  | > 1000
54 | OCCCCOc1cc(CO)c2c(c1)C(O)(C(F)(F)F)c1ccccc1-2 (stereo not shown) [compound 611] |  | 329 |  | 100 to 1000 | 
55 | CC(C)(O)Cn1cc(-c2cc(F)cc3c2-c2ccccc2C3(O)C(F)(F)F)cn1 (single isomer, unassigned) [compound 674] |  | 30 |  | < 100 | 
56 | CC(C)(CC(=O)O)n1cc(-c2cc(F)cc3c2-c2ccccc2C3(O)C(F)(F)F)cn1 (single isomer, unassigned) [compound 610] |  | 41 |  | < 100 | 
57 | COc1nc2c(cc1C(=O)N1CCC1)C(O)(C(F)(F)F)c1ccccc1-2 (stereo not shown) [compound 235] | 100 to 1000 | 803 |  |  | 
58 | OCCCCCOc1ccc2c(c1)C(O)(C(F)(F)F)c1ccccc1-2 (stereo not shown) [compound 296] | 100 to 1000 | 180 |  |  | 
59 | COC(=O)c1ccc(F)c2c1-c1ccccc1C2(O)C(F)(F)F (stereo not shown) [compound 221] | > 1000 | > 10000 |  |  | 
60 | O=C(c1ccc2c(c1)C(O)(C(F)(F)F)c1ccccc1-2)N1CC(C(=O)N2CCCC2)C1 (stereo not shown) [compound 201] | 100 to 1000 | 162 |  |  | 
61 | Cc1cc(-c2cnn(CCO)c2)c2c(c1)C(O)(C(F)(F)F)c1ccccc1-2 (stereo not shown) [compound 492] | < 100 | 40 |  |  | 
62 | COc1cccc2c1-c1ccccc1C2(O)C(F)(F)F (stereo not shown) [compound 46] | > 1000 | 6490 |  |  | 
63 | N#Cc1ccc2c(c1)C(O)(C(F)(F)F)c1ccccc1-2 (stereo not shown) [compound 671] |  | 1440 |  | > 1000 | 
64 | OC1(C(F)(F)F)c2ccccc2-c2ccc(OCC3CCCCC3)cc21 (stereo not shown) [compound 253] | > 1000 | 1950 |  |  | 
65 | O=C(c1ccc2c(c1)C(O)(C(F)(F)F)c1ccccc1-2)N1CCC1 (stereo not shown) [compound 58] | 100 to 1000 | 195 |  |  | 
66 | Cc1cc(-c2cnn(C(C)(C)CC(=O)O)c2)c2c(c1)C(O)(C(F)(F)F)c1ccccc1-2 (single isomer, unassigned) [compound 576] | < 100 | 30 |  |  | 
67 | CC(CO)(CO)n1cc(-c2cccc3c2-c2ccccc2C3(O)C(F)(F)F)cn1 (single isomer, unassigned) [compound 702] |  | 30 |  | < 100 | 
68 | O=C(O)CCCOc1cc(-c2cnn(CCO)c2)c2c(c1)C(O)(C(F)(F)F)c1ccccc1-2 (stereo not shown) [compound 482] | < 100 | 40 |  |  | 
